We go through eleven compounds from patent publication US20010011075A1, “5'-SUBSTITUTED-RIBOFURANOSYL BENZIMIDAZOLES AS ANTIVIRAL AGENTS” (priority 1999, published 2001).

Where two headings read alike, the source gives them in different places.

The test system of series [1] is HCMV. The conditions noted are these: background statement; times more active than TCRB; cited from earlier work.
Series [2] has as its system KB cells. Nature of the series: Inhibition of KB cell growth (crystal violet staining). The conditions noted are these: inhibition of KB cell growth; read-out: 50% Inhibitory Concentration, Cytotoxicity (KB). In kind it is cell-based, human. As for the experimental part: (§1) KB cells (available from the American Type Culture Collection (ATCC) 12301 Parklawn Drive, […], Md. 20852 (ATCC CCL 17)), an established human cell line derived from an epidermal oral carcinoma, were grown in minimal essential medium (MEM) (Sigma) with Hanks salts (MEM(H)) supplemented with 5% fetal calf serum. Human foreskin fibroblasts (HFF cells) (provided by the University of Michigan Hospital) and African green monkey kidney cells (BSC-1) (ATTC CCL 26) cells were grown in MEM with Earl salts (MEM(E)) supplemented with 10% fetal bovine serum. Cells were passaged according to conventional procedures and as described in Shipman, C., Jr. et al. (1976) Antimicrob. Agents Chemother. Vol. 9:120 and incorporated herein by reference. Briefly, cells were passaged at 1:2 to 1:10 dilutions according to conventional procedures by using 0.05% trypsin plus 0.02% EDTA in a HEPES buffered salt solution. HFF cells were passaged only at 1:2 dilutions.
(§2) Two different methods were used to evaluate cytotoxicity of the compounds. First, cytotoxicity produced in stationary HFF cells was determined by microscopical examination of cells not affected by the virus used in the plaque assay. Second the effect of compounds on KB cells during two population doubling times was determined by crystal violet staining and spectrophotometric quantitation of dye eluted from stained cells. This method has been utilized for the analysis of ganciclovir and zidovudine (See Prichard, M. N. et al. Antiviral Res. (1991) Vol. 35:1060-1065).
(§3) (3) Visual cytotoxicity was scored on HFF cells at the time of HCMV plaque enumeration. Inhibition of KB cell growth was determined as described in the experimental. 3L was used as a positive control for the KB cytotoxicity assay.

In series [3] the test system is HFF cells. The series can be described thus: Visual cytotoxicity in stationary HFF cells at time of plaque enumeration. In kind it is cell-based, human. The conditions noted are these: visual cytotoxicity on HFF cells at time of HCMV plaque enumeration; read-out: 50% Inhibitory Concentration, Cytotoxicity (HFF). As for the experimental part:
as §1, §2, §3

In series [4] the test system is HCMV. Nature of the series: HCMV plaque (focus) reduction assay in HFF cells. In kind it is cell-based, HCMV (Towne strain). The following applies: for IC50: HCMV plaque assay, HFF cells, averages from two or more experiments, read-out: 50% Inhibitory Concentration, Antiviral Activity (plaque); for anti-HCMV activity (in words): Table 1. The protocol:
(§4) A plaque purified isolate, Po, of the Towne strain of HCMV was used in all experiments and was a gift of Dr. Mark Stinski, University of Iowa. The KOS strain of HSV-1 was used and was provided by Dr. Sandra K. Weller, University of Connecticut. Stock preparations of HCMV and HSV-1 were prepared and titered as known to those of skill and the art and described in Turk, S. R. et al. (1987) Antimicrob. Agents Chemother. Vol. 31:544-550 and Shipman, C., Jr., et al. (1990) J. Virol. Methods Vol. 28:101-106, each incorporated herein by reference.
(§5) HCMV plaque reduction experiments were performed with monolayer cultures of HFF cells by a procedure similar to that referenced above for titration of the viruses and described in Devivar, R. V. et al. (1994) J. Med. Chem. Vol. 37:2942-2949. Activity of compounds against HSV-1 was evaluated using an ELISA assay.
The effect of compounds of the replication of HCMV was measured using a plaque (focus) reduction assay. For the former, HFF cells in 24-well culture dishes were infected with approximately 50 p.f.u. of HCMV per well using the procedures detailed above. Compounds dissolved in growth medium were added in four to six selected concentrations to duplicate wells following virus adsorption. Following incubation at 37° C. for 7 to 10 days, cell sheets were fixed, stained and microscopic plaques were enumerated as described above. Drug effects were calculated as a percentage of reduction in number of plaques in the presence of each drug concentration compared to the number observed in the absence of drug. DHPG (ganciclovir) was used as a positive control in all experiments.
(§6) Dose-response relationships can be used to compare drug effects. These are constructed by linearly regressing the percent inhibition of parameters derived in the preceding sections against log drug concentrations. The 50 inhibitory (I50) concentrations were calculated from the regression lines using the methods described by Goldstein. See Goldstein, A., Biostatistics: An Introductory Text, MacMillan, New York, pp. 156-161 (1964), incorporated herein by reference.
(§7) (2) A plaque assay was used to quantitate anti HCMV activity, an ELISA assay was used to quantitate activity against HSV-1. DHPG (ganciclovir) was used as a positive control for the HCMV assay.

In series [5] the test system is HSV-1. Nature of the series: HSV-1 ELISA assay. Format: cell-based, HSV-1 (KOS strain). The conditions noted are these: read-out: 50% Inhibitory Concentration, Antiviral Activity (ELISA). As for the experimental part: as §4, §5
ELISA techniques according to standard procedures were also used to determine activity against HSV-1. Drug effects were calculated as a percentage of the reduction in virus titers in the presence of each drug concentration compared to the titer obtained in the absence of drug. Ganciclovir was used as a positive control in all experiments.
as §6, §7
On the technique in general: ELISA stands for enzyme-linked immunosorbent assay.

Series [6] can be described thus: Inhibition of KB cell growth (crystal violet staining). The conditions noted are these: human, KB cells (human epidermal oral carcinoma line); inhibition of KB cell growth; read-out: 50% Inhibitory Concentration, Cytotoxicity (KB). In kind it is cell-based, human. The protocol: as §1, §2, §3
Series [7] is described as follows: Visual cytotoxicity in stationary HFF cells at time of plaque enumeration. In kind it is cell-based, human. The conditions noted are these: human, stationary human foreskin fibroblasts (HFF cells); visual cytotoxicity on HFF cells at time of HCMV plaque enumeration; read-out: 50% Inhibitory Concentration, Cytotoxicity (HFF). As for the experimental part: as §1, §2, §3

Series [8] concerns L1210 cells. Nature of the series: Antiproliferative activity: growth of L1210 cells. Format: cell-based, mouse. The following applies: concentration required to decrease final growth rate of L1210 cells to half of control rate, read-out: 50% Inhibitory Concentration, Antiproliferative Activity. As for the experimental part:
Antiproliferative activity was evaluated by measuring the effect of the compounds on the growth of L1210 cells, a mouse leukemia cell line which is generally available and can be obtained from Cancer Chemotherapy Center, Japanese Foundation for Cancer Research. Antiproliferative activity was measured using conventional procedures and as described in Wotring, L. L. and Townsend, L. B., (1979) Cancer Res. Vol. 39:3018-3023 and Cory, A. H. et al. (1991) Cancer Comm. Vol. 3:207-212, each incorporated herein by reference.
(8) The concentration required to decrease the final growth rate of L1210 cells to half of the control rate. All values are averages from two or more experiments.

Where [9] appears, read: averages from two or more experiments.
Setting [10] is: Human alphaherpesvirus 1, averages from two or more experiments.

With `C[C@H]1O[C@@H](n2c(Cl)nc3cc(Cl)c(Cl)cc32)[C@H](O)[C@@H]1O` [Compound 2, 2,5,6-trichloro-1-(5′-deoxy-β-D-ribofuranosyl)benzimidazole, reference compound], the “activity relative to TCRB” value in series [1] is listed as “about 10 times”. In addition, the IC50 in series [2] is 150 µM; in [3], 77 µM; in [4], 0.36 µM; in [5] (setting [9]), over 100 µM.

Consider `COC[C@H]1O[C@@H](n2c(Cl)nc3cc(Cl)c(Cl)cc32)[C@H](OC(C)=O)[C@@H]1OC(C)=O` [Compound 7a, 2,5,6-trichloro-1-(2′,3′-di-O-acetyl-5′-O-methyl-β-D-ribofuranosyl)benzimidazole], for which the melting point (in general, the temperature of the solid-liquid transition) is 150 to 151 °C. Also, in [6], the IC50 at 2 population doubling times turned out to be 80 µM. For the same compound, the IC50 in series [7] was determined as 26 µM. Besides, the IC50 in [4] (Human betaherpesvirus 5, HFF) was 2.8 µM. Moreover, the IC50 in series [5] (setting [10]) was over 100 µM.

For `CCOC[C@H]1O[C@@H](n2c(Cl)nc3cc(Cl)c(Cl)cc32)[C@H](OC(C)=O)[C@@H]1OC(C)=O` [Compound 7b, 2,5,6-trichloro-1-(2′,3′-di-O-acetyl-5′-O-ethyl-β-D-ribofuranosyl)benzimidazole], the melting point lay within 125 to 126 °C. Further, the IC50 at 2 population doubling times in [6] was determined as 60 µM. The IC50 in [7] came out at 33 µM. The IC50 in [4] (Human betaherpesvirus 5, HFF) was 4.3 µM. In addition, the IC50 in series [5] (setting [10]) is over 100 µM.

In turn, `CCCCOC[C@H]1O[C@@H](n2c(Cl)nc3cc(Cl)c(Cl)cc32)[C@H](OC(C)=O)[C@@H]1OC(C)=O` [Compound 7c, 2,5,6-trichloro-1-(2′,3′-di-O-acetyl-5′-O-butyl-β-D-ribofuranosyl)benzimidazole] gave a melting point of 143 to 144 °C. Besides, the IC50 at 2 population doubling times in [6] was over 100 µM. Moreover, in series [7], the IC50 came out at 66 µM. For the same compound, the IC50 in series [4] (Human betaherpesvirus 5, HFF) amounted to 21 µM. Moreover, in series [5] (setting [10]), the IC50 was over 100 µM.

`CCCCCCOC[C@H]1O[C@@H](n2c(Cl)nc3cc(Cl)c(Cl)cc32)[C@H](OC(C)=O)[C@@H]1OC(C)=O` [Compound 7d, 2,5,6-trichloro-1-(2′,3′-di-O-acetyl-5′-O-hexyl-β-D-ribofuranosyl)benzimidazole] yielded a melting point of 98 to 100 °C. In series [6], the IC50 at 2 population doubling times came out at 60 µM. The IC50 in [7] was 32 µM. For the same compound, the IC50 in [4] (Human betaherpesvirus 5, HFF) was found to be 8 µM. In series [4], the “anti-HCMV activity (in words)” value is reported as “decreased activity over the butyl compound (7c)”. For the same compound, in series [5] (setting [10]), the IC50 is over 100 µM.

As for `COC[C@H]1O[C@@H](n2c(Cl)nc3cc(Cl)c(Cl)cc32)[C@H](O)[C@@H]1O` [Compound 8a, 2,5,6-trichloro-1-(5′-O-methyl-β-D-ribofuranosyl)benzimidazole], the melting point fell in the range of 104 to 105 °C. In addition, in series [6], the IC50 at 2 population doubling times came out at 90 µM. The IC50 in series [8] (Mus musculus) amounted to 60 µM. The IC50 in series [7] was determined as 26 µM. Also, the IC50 in [4] (Human betaherpesvirus 5, HFF) came to 3 µM. In series [5] (setting [10]), the IC50 was over 100 µM.

The compound `CCOC[C@H]1O[C@@H](n2c(Cl)nc3cc(Cl)c(Cl)cc32)[C@H](O)[C@@H]1O` [Compound 8b, 2,5,6-trichloro-1-(5′-O-ethyl-β-D-ribofuranosyl)benzimidazole] gave a melting point of 88 to 90 °C. Also, the IC50 at 2 population doubling times in [6] was determined as 80 µM. Further, the IC50 in series [8] (Mus musculus) was 59 µM. For the same compound, the IC50 in [7] was 26 µM. The IC50 in [4] (Human betaherpesvirus 5, HFF) turned out to be 4.6 µM. Besides, in series [5] (setting [10]), the IC50 is over 100 µM.

`CCCCOC[C@H]1O[C@@H](n2c(Cl)nc3cc(Cl)c(Cl)cc32)[C@H](O)[C@@H]1O` [Compound 8c, 2,5,6-trichloro-1-(5′-O-butyl-β-D-ribofuranosyl)benzimidazole] returned a melting point of 70 to 72 °C. The IC50 at 2 population doubling times in [6] is 60 µM. For the same compound, in series [8] (Mus musculus), the IC50 is over 100 µM. For the same compound, the IC50 in series [7] amounted to 32 µM. Besides, the IC50 in series [4] (Human betaherpesvirus 5, HFF) is 14.2 µM. Also, the IC50 in [5] (setting [10]) was over 100 µM.

As for `O[C@@H]1[C@H](O)[C@@H](CCl)O[C@H]1n1c(Cl)nc2cc(Cl)c(Cl)cc21` [Compound 13b, 2,5,6-trichloro-1-(5′-deoxy-5′-chloro-β-D-ribofuranosyl)benzimidazole], the IC50 in series [2] is 90 µM; in [8], over 100 µM; in series [3] it was 32 µM; in [4], 1 µM; in series [5] (setting [9]), over 100 µM.

For the compound `[N-]=[N+]=NC[C@H]1O[C@@H](n2c(Cl)nc3cc(Cl)c(Cl)cc32)[C@H](O)[C@@H]1O` [Compound 17a, 2,5,6-trichloro-1-(5′-deoxy-5′-azido-β-D-ribofuranosyl)benzimidazole], the IC50 in [2] is 70 µM; in series [8], 80 µM; in series [3], 32 µM; in series [4], 1.5 µM; in [5] (setting [9]), over 100 µM.

On to `CSC[C@H]1O[C@@H](n2c(Cl)nc3cc(Cl)c(Cl)cc32)[C@H](O)[C@@H]1O` [Compound 17b, 2,5,6-trichloro-1-(5′-deoxy-5′-methylthio-β-D-ribofuranosyl)benzimidazole], for which the IC50 was over 100 µM in series [2]; over 100 µM in [8]; 32 µM in series [3]; 4.5 µM in series [4]; over 100 µM in series [5] (setting [9]). Further, the “anti-HCMV activity (in words)” value in series [4] is reported as “equally active as the 5′-O-ethyl derivative (8b)”.
